Source: ChEMBL document CHEMBL1126386, “-alkoxyphenol leukotriene B4 receptor antagonists: effect of a chroman carboxylic acid” (Bioorg Med Chem Lett, 1992)

Columns and labels:
Cavia porcellus = assay: Compound was tested for antagonizing effect of LTB4-induced gas trapping in the guinea pig when administered intravenously; assay type: functional; details: iv
Leukotriene B4 receptor = Leukotriene B4 receptor (Homo sapiens, UniProt Q9NPC1+Q15722); assay: Inhibition of LTB4-induced CD11b/CD18 integrin up-regulation in human neutrophils; assay type: functional

Compound `CCCc1c(OCCCOc2cc(O)c(OCC)cc2CC)ccc2c1OC(C(=O)O)CC2` (configuration not stated) has an ED50 (Cavia porcellus) of 0.012 mg/kg and an IC50 (Leukotriene B4 receptor) of 195 nM.
